Reference: patent US20080312171A1, “Tetracycline-Dependent Regulation of Rna Interference” (CENTRE NATIONAL DE LA RECHERCHE SCIENTIFIQUE, priority 2005, published 2008)

Columns and labels:
Type in all cases: cell-based
[1] = test system: GFP expression in HEK 293T GFP cell clones; assay: GFP fluorescence (FACS, microscopy) in cell clones from transduced HEK 293T GFP cells, Dox-controlled RNAi
human p53 = assay: Western blot analysis of p53 silencing by Dox-regulated RNAi in HEK 293T, MCF-7 and A549 cells; settings: transduced HEK 293T, Dox 6 μg/ml, 5-7 days, densitometric analysis
Protocol: Cells (1×10^5) were incubated overnight with indicated quantities of vector, expressed as ng of protein p24, and then cultivated in the absence and in the presence of 6 μg/ml Dox. After a 5 day (MCF-7 and A549 cells) and a 7 day cultivation (HEK 293T cells), protein was extracted from the cells and analyzed by immunoblotting.
Inventors constructed a second vector, which contained a shRNA encoding sequence designed to silence expression of human p53 as described (1). […] The expression of p53 was not reduced when non-transduced cells were incubated in the presence of Dox (6 μg/ml).
Cell extracts were prepared in lysis buffer [25 mM Tris-HCl (pH 7.5), 1% Triton X-100, 0.5% sodium deoxycholate, 5 mM EDTA, 150 mM NaCl] containing a cocktail of protease inhibitors (Roche, Meylan, France). The protein samples (30 μg) were separated on SDS-9% polyacrylamide gels and then transferred to Protan nitrocellulose membranes (Schleicher and Shuell, Dassel, Germany) in an electroblotting apparatus, using standard procedures (26). Immunodetection was performed as described in Tejedor-Real et al. (27), using a monoclonal anti-p53 antibody (BD Biosciences, Erembodegem, Belgium), a monoclonal anti-actin antibody (Chemicon, Hampshire, UK) and an anti-mouse Ig-horseradish peroxidase (HRP) conjugate (Amersham Biosciences).

[2] = test system: GFP expression in HEK 293T GFP cells; assay: FACS analysis of GFP-positive cells, vector-transduced HEK 293T GFP cells with and without Dox; settings: various amounts of vector, Dox 6 μg/ml, 5 days

## C[C@H]1c2cccc(O)c2C(=O)C2=C(O)[C@]3(O)C(=O)C(C(N)=O)=C(O)[C@@H](N(C)C)[C@@H]3[C@@H](O)[C@@H]21 [Dox, Doxycycline]
[1]; clone C1
  MFI (+Dox): 4
[1]; clone C1, MFI (−Dox) over MFI (+Dox)
  Regulation factor: 52
[1]; clone C9
  MFI (+Dox): 32
[1]; clone C9, 6 μg/ml Dox, after 5-6 days, FACS
  reduction of GFP fluorescence: 90%
[1]; clone C9, MFI (−Dox) over MFI (+Dox)
  Regulation factor: 9.7
[1]; clone C9, within 5 days
  concentration required to induce a 90% suppression of GFP: about 6 μg/ml
[1]; clone D8
  MFI (+Dox): 9
[1]; clone D8, MFI (−Dox) over MFI (+Dox)
  Regulation factor: 24
[1]; clone H6
  MFI (+Dox): 77
[1]; clone H6, MFI (−Dox) over MFI (+Dox)
  Regulation factor: 4.4
Human p53
  inhibition of the expression of p53: up to 90%
[2]
  reduction of the number of GFP-expressing cells: up to 60%
